Measurements as given in patent publication EP4790046A1, “NOVEL COMPOUND DERIVED FROM MYRISTICA FRAGRANS, AND ANTICANCER COMPOSITION COMPRISING SAME” (Korea Institute of Science and Technology, priority 2023, dated 2025).
Where two headings read alike, the source gives them in different places.

Columns and labels:
SNU-719 = assay: alamarBlue cell viability (survival rate, IC50), SNU-719; type: cell-based; conditions: for Cancer cell line survival rate (%) / viability at 10 µM: SNU-719 (gastric cancer), compound 10 µM, 48 hours; for IC50: SNU719 (gastric cancer), 2.5-40 µM, positive control = doxorubicin; for viability at 10 µM: read-out: Cancer cell line survival rate (%)
From the text: (§1) A p-value < 0.05 was considered statistically significant.

AGS = assay: alamarBlue cell viability (survival rate, IC50), AGS; type: cell-based; conditions: AGS (gastric cancer); for Cancer cell line survival rate (%) / viability at 10 µM: compound 10 µM, 48 hours; for IC50 / viability at 10 µM: Homo sapiens; for IC50: 2.5-40 µM, positive control = doxorubicin; for viability at 10 µM: read-out: Cancer cell line survival rate (%)
From the text: as §1

MiaPaCa-2 = assay: alamarBlue cell viability (survival rate), MiaPaCa-2; type: cell-based; conditions: MiaPaCa-2 (pancreatic cancer), compound 10 µM, 48 hours; for viability at 10 µM: Homo sapiens, MIA PaCa-2, read-out: Cancer cell line survival rate (%)
From the text: as §1

23132/87 = assay: alamarBlue cell viability (survival rate, IC50), 23132/87; type: cell-based; conditions: 23132/87 (gastric cancer); for Cancer cell line survival rate (%) / viability at 10 µM: compound 10 µM, 48 hours; for IC50: 2.5-40 µM, positive control = doxorubicin; for viability at 10 µM: read-out: Cancer cell line survival rate (%)
From the text: as §1

HepG2 = assay: alamarBlue cell viability (survival rate), HepG2; type: cell-based; conditions: HepG2 (liver cancer), compound 10 µM, 48 hours; for viability at 10 µM: Homo sapiens, read-out: Cancer cell line survival rate (%)
From the text: as §1

SNU-C5 = assay: alamarBlue cell viability (survival rate, IC50), SNU-C5; type: cell-based; conditions: for Cancer cell line survival rate (%) / viability at 10 µM: SNU-C5 (colorectal cancer), compound 10 µM, 48 hours; for viability at 10 µM: read-out: Cancer cell line survival rate (%)
From the text: as §1

SNU-81 = assay: alamarBlue cell viability (survival rate, IC50), SNU-81; type: cell-based; conditions: for Cancer cell line survival rate (%) / viability at 10 µM: SNU-81 (colorectal cancer), compound 10 µM, 48 hours; for viability at 10 µM: read-out: Cancer cell line survival rate (%)
From the text: as §1

SNU466 = assay: alamarBlue cell viability (survival rate), SNU466; type: cell-based; conditions: SNU466 (glioblastoma), compound 10 µM, 48 hours; for viability at 10 µM: read-out: Cancer cell line survival rate (%)
From the text: as §1

SW48 = assay: alamarBlue cell viability (survival rate, IC50), SW48; type: cell-based; conditions: SW48 (colorectal cancer); for Cancer cell line survival rate (%) / viability at 10 µM: compound 10 µM, 48 hours; for IC50 / viability at 10 µM: Homo sapiens; for IC50: 2.5-40 µM, positive control = oxaliplatin; for viability at 10 µM: read-out: Cancer cell line survival rate (%)
From the text: as §1

SNU201 = assay: alamarBlue cell viability (survival rate), SNU201; type: cell-based; conditions: SNU201 (glioblastoma), compound 10 µM, 48 hours; for viability at 10 µM: read-out: Cancer cell line survival rate (%)
From the text: as §1

[1] = system: various cancer cell lines; assay: alamarBlue cell viability, statements across the cell line panel; conditions: for anticancer activity: various cancer cell lines; for cytotoxic effects: gastric cancer cell lines and colorectal cancer cell lines, 10 µM, 48 hours
Protocol: AGS, SW48, HepG2, and MiaPaCa-2 was purchased from ATCC (American Type Culture Collection, USA), SNU cell lines from the Korean Cell Line Bank (KCLB, Korea), and 23132/87 from the Leibniz Institute DSMZ - German Collection of Microorganisms and Cell Cultures GmbH (DSMZ, Germany). All cell lines were cultured in RPMI-1640 medium (HyClone, USA) supplemented with 10% FBS (Gibco, USA) and 1% penicillin-streptomycin (HyClone, USA) under conditions of 5% CO2, 37°C.
Cells were seeded at a density of 5 × 10^3cells/well in a 96-well plate for 24 hours, then treated with the compound at an appropriate concentration (10 µM) for 48 hours. After treatment, alamarBlue reagent was added at a volume ratio of 1/10 of the treatment volume and incubated for 4 hours in a 37°C cell incubator (protected from direct light). Cell viability was then determined by measuring absorbance values at 570 nm and 600 nm using a microplate reader. The anticancer effects of candidate compounds were evaluated by assessing the cell viability (%) of cells treated at specific concentrations and the half-maximal inhibitory concentration (IC50) of each natural product. Doxorubicin and oxaliplatin were used as positive controls for gastric and colorectal cancer, respectively.
Statistical analysis was performed using R software (version 4.2.2) (R Core Team). Differences between groups were assessed using student's t-test or 1-way ANOVA followed by post-hoc Tukey HSD test. A p-value < 0.05 was considered statistically significant.
Further, to measure the IC50 values against six cancer cell lines.

[2] = SNUC5 (colorectal cancer), 2.5-40 µM, positive control = oxaliplatin, read-out: IC50
[3] = SNU81 (colorectal cancer), 2.5-40 µM, positive control = oxaliplatin, read-out: IC50

Row | Structure (SMILES) | IC50 (SNU-719) | IC50 (AGS) | IC50 (23132/87) | IC50 (SNU-C5; [2]) | IC50 (SNU-81; [3]) | IC50 (SW48) | viability at 10 µM (SNU-719) | viability at 10 µM (AGS) | viability at 10 µM (MiaPaCa-2) | viability at 10 µM (23132/87) | viability at 10 µM (HepG2) | viability at 10 µM (SNU-C5) | viability at 10 µM (SNU-81) | viability at 10 µM (SNU466) | viability at 10 µM (SW48) | viability at 10 µM (SNU201) | anticancer activity [1] | also measured
1 | C/C=C/c1ccc(O[C@H](C)[C@H](c2ccc(O)c(OC)c2)c2ccc(O)c(C(=O)CCCCCCCCc3ccc(O)c(O)c3)c2O)c(OC)c1 (relative stereo) [Compound 8, Myrifragranone A] | – | – | – | – | – | – | – | – | – | – | – | – | – | – | – | – | – | Cancer cell line survival rate (%) (SNU-719): 2.27%; Cancer cell line survival rate (%) (AGS): 2.19%; Cancer cell line survival rate (%) (MiaPaCa-2): 74.57%; Cancer cell line survival rate (%) (23132/87): 3.92%; Cancer cell line survival rate (%) (HepG2): 95.41%; Cancer cell line survival rate (%) (SNU-C5): 4.41%; Cancer cell line survival rate (%) (SNU-81): 10.02%; Cancer cell line survival rate (%) (SNU466): 93.39%; Cancer cell line survival rate (%) (SW48): 2.04%; Cancer cell line survival rate (%) (SNU201): 108.12%
2 | C=CCc1cc(OC)c(O[C@H](C)[C@H](c2ccc(O)c(OC)c2)c2ccc(O)c(C(=O)CCCCCCCCc3ccc(O)c(O)c3)c2O)c(OC)c1 [Compound 1, Myricone A or Myrifragranone B, reference compound] | 3.99 µM | 4.07 µM | 4.09 µM | 6.32 µM | 14.6 µM | 4.3 µM | – | – | – | – | – | – | – | – | – | – | – | Cancer cell line survival rate (%) (SNU-719): 3.95%; Cancer cell line survival rate (%) (AGS): 1.13%; Cancer cell line survival rate (%) (MiaPaCa-2): 3.15%; Cancer cell line survival rate (%) (23132/87): 4.71%; Cancer cell line survival rate (%) (HepG2): 2.07%; Cancer cell line survival rate (%) (SNU-C5): 8.73%; Cancer cell line survival rate (%) (SNU-81): 94.79%; Cancer cell line survival rate (%) (SNU466): 1.7%; Cancer cell line survival rate (%) (SW48): 1.75%; Cancer cell line survival rate (%) (SNU201): 2.07%
3 | C=CCc1cc(OC)c(O[C@H](C)[C@@H](c2ccc(O)c(OC)c2)c2ccc(O)c(C(=O)CCCCCCCCc3ccc(O)c(O)c3)c2O)c(OC)c1 [Compound 2, Myricone B] | 4.7 µM | 4.59 µM | 4.25 µM | 6.85 µM | 16.6 µM | 6.18 µM | 4.55% | 2.45% | 3.67% | 7.44% | 1.47% | 22.1% | 103% | 2.29% | 7.98% | 1.43% | – | –
4 | C=CCc1cc(OC)c(O[C@H](C)[C@@H](c2ccc(O)c(OC)c2)c2ccc(O)c(C(=O)CCCCCCCCc3ccc(O)cc3)c2O)c(OC)c1 [Compound 4, Myricone D] | 5.01 µM | 7.27 µM | 4.14 µM | 5.57 µM | 16.9 µM | 5.73 µM | – | – | – | – | – | – | – | – | – | – | high anticancer activity | Cancer cell line survival rate (%) (SNU-719): 10.19%; Cancer cell line survival rate (%) (AGS): 10.15%; Cancer cell line survival rate (%) (MiaPaCa-2): 3.54%; Cancer cell line survival rate (%) (23132/87): 8.41%; Cancer cell line survival rate (%) (HepG2): 1.84%; Cancer cell line survival rate (%) (SNU-C5): 12.41%; Cancer cell line survival rate (%) (SNU-81): 115.60%; Cancer cell line survival rate (%) (SNU466): 1.74%; Cancer cell line survival rate (%) (SW48): 2.61%; Cancer cell line survival rate (%) (SNU201): 2.44%
5 | C=CCc1ccc(O[C@H](C)[C@H](c2ccc(O)c(OC)c2)c2ccc(O)c(C(=O)CCCCCCCCc3ccc(O)c(O)c3)c2O)c(OC)c1 [Compound 5, Myricone E] | – | – | – | – | – | – | 45% | 42.1% | 1.64% | 52.1% | 2.34% | 37.6% | 126% | 0.58% | 10.2% | 0.61% | – | –
6 | C=CCc1cc(OC)c(O[C@H](C)[C@H](c2ccc(O)c(OC)c2)c2cc(O)c(O)cc2CCCCCCCCC(=O)c2c(O)cccc2O)c(OC)c1 [Compound 6, Myricone F] | 2.58 µM | 3.35 µM | 2.39 µM | 4.04 µM | 10.3 µM | 3.09 µM | 1.36% | 0.51% | 2.16% | 1.46% | 1.32% | 3.53% | 55.8% | 1.96% | 0.82% | 1.4% | high anticancer activity | cytotoxic effects [1]: excellent cytotoxic effects
7 | C=CCc1cc(OC)c(O[C@@H](C)[C@H](Oc2cc(CCCCCCCCC(=O)c3c(O)cccc3O)ccc2O)c2ccc(O)c(OC)c2)c(OC)c1 [Compound 10, Myricone K] | – | – | – | – | – | – | 1.85% | 4.14% | 4.3% | 2.77% | 8.7% | 4.94% | 16.1% | 0.6% | 2.67% | 3.28% | high anticancer activity | –
8 | C=CCc1cc(OC)c(O[C@H](C)[C@H](Oc2cc(CCCCCCCCC(=O)c3c(O)cccc3O)ccc2O)c2ccc(O)c(OC)c2)c(OC)c1 [Compound 11, Myricone L] | – | – | – | – | – | – | 12.5% | 20.3% | 22% | 19% | 25.3% | 13.4% | 92.5% | 0.52% | 5.57% | 32.8% | high anticancer activity | cytotoxic effects [1]: excellent cytotoxic effects
9 | C=CCc1cc(OC)c(OC(C)C(Oc2cccc(O)c2C(=O)CCCCCCCCc2ccc(O)cc2)c2ccc(O)c(OC)c2)c(OC)c1 (centres unmarked) [Compound 12, Myricone M] | – | – | – | – | – | – | 0.53% | 7.89% | 3.46% | 0.67% | 1.23% | 1.98% | 2.27% | 0.64% | 2.52% | 0.75% | high anticancer activity | –
10 | COc1cc(C(c2ccc(O)c(C(=O)CCCCCCCCc3ccc(O)c(O)c3)c2O)C(C)C(C)Cc2ccc3c(c2)OCO3)ccc1O (centres unmarked) [Compound 14, Myricone O] | – | – | – | – | – | – | 71.6% | 81.4% | 87.8% | 78.2% | 67% | 18.8% | 104% | 56.1% | 31.1% | 101% | high anticancer activity | –
11 | COc1cc([C@H]2Oc3c(OC)cc(/C=C/Cc4c(CCCCCCCCC(=O)c5c(O)cccc5O)ccc(O)c4O)cc3[C@@H]2C)ccc1O [Compound 18, Myricone T] | – | – | – | – | – | – | 104% | 91.9% | 74.8% | 87.1% | 89% | 78% | 102% | 86.2% | 83.5% | 104% | – | –
12 | COc1cc([C@H]2Oc3c(OC)cc(/C=C/Cc4ccc(O)c(C(=O)CCCCCCCCc5ccc(O)c(O)c5)c4O)cc3[C@@H]2C)ccc1O [Compound 19, Myricone X] | – | – | – | – | – | – | 108% | 84.5% | 56.9% | 89.3% | 52.4% | 69.6% | 102% | 80.9% | 69.7% | 107% | – | –
13 | O=C(CCCCCCCCc1cc(O)c(O)cc1-c1ccc(O)c(C(=O)CCCCCCCCc2ccc(O)c(O)c2)c1O)c1c(O)cccc1O [Compound 26, Giganteones A, reference compound] | 4.6 µM | 1.71 µM | 4.08 µM | 3.72 µM | 8.94 µM | 2.77 µM | – | – | – | – | – | – | – | – | – | – | – | anticancer activity (comparison of IC50 values among compounds) ([1]; six cancer cell lines, 2.5-40 µM): overall superior activity to Myrifragranone B and Malabaricone C
14 | O=C1[O][Pt]2([NH][C@@H]3CCCC[C@H]3[NH]2)[O]C1=O [oxaliplatin, reference compound] | – | – | – | – | – | – | – | – | – | – | – | – | – | – | – | – | – | IC50 (SNU-C5; SNUC5 cells, compound 2.5-40 µM, read-out: IC50 values): 12.6 µM; IC50 (SNU-81; SNU81 cells, compound 2.5-40 µM, read-out: IC50 values): 41.5 µM
